Data: patent publication US20230391748A1, “BICYCLIC INHIBITORS OF IRAK” (priority 2022, published 2023)
Read-outs that look alike come from different tables or passages of the source.

Tests used:
TNF-α in human PBMCs = assay: R848-induced TNF-α in human PBMCs Assay; assay type: cell-based; conditions: PBMC
Procedure: R848-induced TNF-α in human PBMCs Assay
100 μL/well PBMCs (200K/well) were seeded in 96-well flat-bottom tissue culture plates. […] 100 μL/well 2× compound was added to the PBMC in the tissue culture plates. […] The cells were stimulated with R848 for an additional 4 hours at 37° C., 5% CO2. The supernatant (100 μl/well) was harvested to measure TNF-α by ELISA. […] The chemiluminescence values were entered into Athena (Rigel) for curve fitting, EC50 calculation, and database storage.
(§1) TNF-α ELISA was performed according to the vendor protocol, using 96 Well Flat-Bottom, MaxiSorp Black Immuno plates and 100 μL/well of supernatant. The plates were developed using 100 μL/well of Super Signal ELISA Pico Chemiluminescent Substrate. The plates were read with a luminometer, and the chemiluminescence values were entered into Athena (Rigel) for curve fitting, EC50 calculation, and database storage.

IRAK4 = IRAK4 (Homo sapiens (Human), UniProt Q9NWZ3); assay: IRAK4 ADP-Glo Assay; assay type: biochemical; conditions: MBP substrate
Procedure: The ADP-Glo™ reagents were thawed at ambient temperature. The Kinase Detection Reagent was prepared by mixing kinase detection buffer with the lyophilized kinase detection substrate, and set aside.
A stock volume of 5× Reaction Kinase Buffer was made with a final concentration of 100 mM MgCl2, 200 mM Tris-HCl, and 0.5 mg/ml of BSA, in distilled H2O with a final pH7.4. A 2× working stock volume of Reaction Kinase Buffer was made containing a final concentration of 100 μM DTT.
The components of IRAK4 Enzyme were thawed on ice. Diluted IRAK4 in 1× Kinase Reaction Buffer (diluted from 2× buffer) was prepared at 5.0 ng/μl.
Then diluted 1:5 in 2× Reaction Buffer in a 96 well plate. 1.0 μl was transferred to a 384 well plate in duplicate. […] 1 μl of 1 mg/ml stock solution of MBP substrate was added NOTE: MBP can be combined with ATP mix with equal volume and then added at 2 μl/well. Final reaction volume was 5 μl.
The plate was centrifuged and the reaction mixture was incubated at room temperature for 60 minutes or at 30° C. for 30 minutes.
The reaction was terminated and the remaining ATP was depleted by adding 5 μl of ADP-Glo™ Reagent. The 384-well plate was centrifuged and then the reaction mixture was incubated for another 40 minutes at ambient temperature.
10 μl of the Kinase Detection Reagent was added. The plate was centrifuged and then the reaction mixture was incubated for another 30 minutes at ambient temperature.
The 384-well reaction plate was read using the WALLAC plate reader (Luminescence 0.1s).

[1] = system: TNF-α in Human Primary Monocyte-Derived Dendritic Cells; assay: Gardiquimod-Induced TNF-α in Human Primary Monocyte-Derived Dendritic Cells; assay type: cell-based; conditions: Dendritic cell, IFNγ-primed monocyte-derived dendritic cells, 4 μg/ml Gardiquimod, 6 hours, TNF-α ELISA, read-out: TNFα (DC, GARD) (IC50)
Procedure: Gardiquimod-Induced TNF-α in Human Primary Monocyte-Derived Dendritic Cells
After 2 hours, the media including floating cells was carefully removed and 12 ml of fresh RPMI media (10% FBS) containing GM-CSF (100 ng/ml) and IL-4 (20 ng/ml) were added to the adherent monocytes. The monocytes were allowed to differentiate for 7 days at 37° C., 5% CO2 for 7 days, supplementing with fresh GM-CSF and IL-4 after 3 days. The differentiated dendritic cells (DC) were harvested by centrifugation (1200 rpm/5 min). The DCs were primed at 37° C., 5% CO2 for 24 hours with 50 ng/ml IFN-γ (1000 U/ml) at 50K/well in 100 μl/well of fresh RPMI media (10% FBS) in a white clear bottom 96 well plate.
The primed DCs were pre-incubated with test compound for 1 hour at 37° C., 5% CO2 by adding 100 μl of RPMI media containing 2× concentrated test compound per well (0.5% final DMSO concentration).
DCs were stimulated with Gardiquimod (10 μl per well of 20× concentrated Gardiquimod solution in RPMI media to give a final concentration of 4 μg/ml) at 37° C., 5% CO2 for an additional 6 hours. The supernatant (100 μl/well) was harvested to measure TNF-α by ELISA. […] The chemiluminescence values were entered into Athena (Rigel) for curve fitting, EC50 calculation, and database storage.
as §1

IL23p19 in THP-1 Cells = assay: LPS Induced IL23p19 in THP-1 Cells (with IFNγ Primed) Assay; assay type: cell-based; conditions: Homo sapiens
Procedure: LPS Induced IL23p19 in THP-1 Cells (with IFNγ Primed) Assay
On day 1, 50K/well THP-1 cells were seeded and primed with IFNγ (50 ng/mL) in 384-well plates for about 18 hours in RPMI media with 10% FBS. […] 50 μL/well 2× compound was added to 50 μL/well THP-1 cells (with IFNγ primed) in duplicate in 384 well tissue culture plates. […] Day 3, after stimulation for 18 hours at 37° C., 5% CO2, the assay plate was centrifuged and 70 μL/well supernatant was harvested. IL-23p19 protein in 70 µL/well of supernatant was measured by sandwich ELISA, and 25 μl/well Cell Titer Glo reagent was added to the remaining cells to measure compound toxicity.
Maxisorp immuno ELISA plates were pre-coated with 25 μL/well of anti-IL-23p19 capture antibody (2.5 ug/mL) in PBS overnight at room temperature. […] 25 μL/well of biotin labeled anti-IL-12(p40/p70) detection antibody (100 ng/mL) in PBS with 1% BSA was added and the plates were incubated at room temperature for 2 hours with shaking. […] The plates were read with a luminometer, and the chemiluminescence values were entered into Athena (Rigel) for curve fitting, EC50 calculation, and database storage.

[2] = Homo sapiens, 4 h, read-out: TNFα (PBMC, R848) (IC50, μM)
[3] = THP-1, 18 h, read-out: IL23 (THP, LPS) (IC50, μM)

Chain of IRAK4 (Q9NWZ3 whole entry): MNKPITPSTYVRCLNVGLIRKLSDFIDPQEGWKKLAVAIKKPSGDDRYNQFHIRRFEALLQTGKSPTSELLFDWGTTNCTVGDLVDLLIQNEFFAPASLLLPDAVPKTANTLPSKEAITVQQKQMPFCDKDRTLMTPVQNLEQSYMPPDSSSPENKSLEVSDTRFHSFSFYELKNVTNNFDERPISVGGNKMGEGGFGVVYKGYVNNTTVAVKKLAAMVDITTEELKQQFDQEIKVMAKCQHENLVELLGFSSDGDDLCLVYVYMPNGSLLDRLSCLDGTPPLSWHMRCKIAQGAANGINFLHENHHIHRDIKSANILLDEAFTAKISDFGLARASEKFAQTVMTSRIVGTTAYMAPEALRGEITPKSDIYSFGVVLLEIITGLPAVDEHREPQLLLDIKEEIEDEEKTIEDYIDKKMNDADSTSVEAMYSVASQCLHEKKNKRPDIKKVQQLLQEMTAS

Question: What does the source list for CC(C)Oc1cc2c(OC[C@@H]3CCC(=O)N3)ncc(-c3cnn(CCC4CCOCC4)c3)c2cc1C(N)=O [Compound I-37, (S)-7-isopropoxy-1-((5-oxopyrrolidin-2-yl)methoxy)-4-(1-(2-(tetrahydro-2H-pyran-4-yl)ethyl)-1H-pyrazol-4-yl)isoquinoline-6-carboxamide]?
Answer: IC50 (TNF-α in human PBMCs; [2]): 0.324 µM; IC50 (IRAK4): 0.0137 µM; IC50 [1]: 0.296 µM; IC50 (IL23p19 in THP-1 Cells; [3]): 1.34 µM

Question: For CC(C)Oc1cc2c(OC[C@@H]3CC(F)(F)C(=O)N3)ncc(-c3cnn([C@H]4CC[C@](C)(O)CC4)c3)c2cc1C(N)=O [Compound I-78, 1-(((S)-4,4-difluoro-5-oxopyrrolidin-2-yl)methoxy)-4-(1-((1r,4S)-4-hydroxy-4-methylcyclohexyl)-1H-pyrazol-4-yl)-7-isopropoxyisoquinoline-6-carboxamide], which IC50 (TNF-α in human PBMCs; [2]) is on record?
Answer: 0.234 µM

Question: And the IC50 (IRAK4)?
Answer: 0.0036 µM

Question: And the IC50 [1]?
Answer: 0.652 µM

Question: What about the IC50 (IL23p19 in THP-1 Cells; [3]) of the same compound?
Answer: 0.162 µM

Question: For CCO[C@H]1CC[C@H](n2cc(-c3cnc(OC[C@@H]4CCC(=O)N4)c4cc(OC(C)C)c(C(N)=O)cc34)cn2)CC1 [Compound I-39, 4-(1-(trans-4-ethoxycyclohexyl)-1H-pyrazol-4-yl)-7-isopropoxy-1-(((S)-5-oxopyrrolidin-2-yl)methoxy)isoquinoline-6-carboxamide], which IC50 (TNF-α in human PBMCs; [2]) is on record?
Answer: 0.693 µM

Question: And the IC50 (IRAK4)?
Answer: 0.0333 µM

Question: And the IC50 [1]?
Answer: 3.52 µM

Question: What about the IC50 (IL23p19 in THP-1 Cells; [3]) of the same compound?
Answer: 0.775 µM

Question: Which IC50 (TNF-α in human PBMCs; [2]) does the source give for CC(C)Oc1cc2c(OC[C@@H]3CC(F)(F)C(=O)N3)ncc(C#CC3CN(C)C3)c2cc1C(N)=O [Compound I-64, (S)-1-((4,4-difluoro-5-oxopyrrolidin-2-yl)methoxy)-7-isopropoxy-4-((1-methylazetidin-3-yl)ethynyl)isoquinoline-6-carboxamide] here?
Answer: 0.0215 µM

Question: What about the IC50 (IRAK4) of the same compound?
Answer: 0.0036 µM

Question: And the IC50 [1]?
Answer: 0.0286 µM

Question: Which IC50 (TNF-α in human PBMCs; [2]) does the source give for CC(C)Oc1cc2c(O[C@@H]3CCCN(C(=O)CC#N)C3)ncc(C#CC3(O)CCN(C)CC3)c2cc1C(N)=O [Compound I-94, (R)-1-((1-(2-cyanoacetyl)piperidin-3-yl)oxy)-4-((4-hydroxy-1-methylpiperidin-4-yl)ethynyl)-7-isopropoxyisoquinoline-6-carboxamide] here?
Answer: 8.08 µM

Question: What about the IC50 (IRAK4) of the same compound?
Answer: 0.0568 µM

Question: And the IC50 (IL23p19 in THP-1 Cells; [3])?
Answer: 18.8 µM

Question: For CC(C)Oc1cc2c(O[C@@H]3CCCNC3)ncc(C#CC3(O)CCCC3)c2cc1C(N)=O [Compound I-85, (R)-4-((1-hydroxycyclopentyl)ethynyl)-7-isopropoxy-1-(piperidin-3-yloxy)isoquinoline-6-carboxamide], which IC50 (TNF-α in human PBMCs; [2]) is on record?
Answer: 2.08 µM

Question: What about the IC50 [1] of the same compound?
Answer: 4.86 µM

Question: What about the IC50 (IL23p19 in THP-1 Cells; [3]) of the same compound?
Answer: 1.96 µM

Question: How did the IC50 (IRAK4) turn out when CC(C)Oc1cc2c(OC[C@@H]3CCC(=O)N3)ncc(C#CC3CCN(C(C)C)CC3)c2cc1C(N)=O [Compound I-19, (S)-7-isopropoxy-4-((1-isopropylpiperidin-4-yl)ethynyl)-1-((5-oxopyrrolidin-2-yl)methoxy)isoquinoline-6-carboxamide] was run?
Answer: 0.0067 µM

Question: And the IC50 [1]?
Answer: 0.618 µM

Question: And the IC50 (IL23p19 in THP-1 Cells; [3])?
Answer: 0.124 µM

Question: Which IC50 (TNF-α in human PBMCs; [2]) does the source give for CC(C)Oc1cc2c(OC[C@@H]3CCC(=O)N3)ncc(C#CC3(O)CCN(C)CC3)c2cc1C(N)=O [Compound I-14, (S)-4-((4-hydroxy-1-methylpiperidin-4-yl)ethynyl)-7-isopropoxy-1-((5-oxopyrrolidin-2-yl)methoxy)isoquinoline-6-carboxamide] here?
Answer: 3.93 µM

Question: And the IC50 (IRAK4)?
Answer: 0.0054 µM

Question: And the IC50 [1]?
Answer: 7.87 µM

Question: Which results are given for CCO[C@H]1CC[C@H](C#Cc2cnc(OC[C@H]3NC(=O)[C@@H](F)[C@H]3CC)c3cc(OC(C)C)c(C(N)=O)cc23)CC1 [Compound I-80, 4-(((1r,4S)-4-ethoxycyclohexyl)ethynyl)-1-(((2S,3S,4S)-3-ethyl-4-fluoro-5-oxopyrrolidin-2-yl)methoxy)-7-isopropoxyisoquinoline-6-carboxamide]?
Answer: IC50 (IRAK4): 0.39 µM; IC50 (IL23p19 in THP-1 Cells; [3]): 0.0105 µM

Question: Which results are given for CC(C)Oc1cc2c(O[C@@H]3CCCN(C(=O)OC(C)(C)C)C3)ncc(-c3cnn(C4CC4)c3)c2cc1C(N)=O [Compound I-107, tert-butyl (R)-3-((6-carbamoyl-4-(1-cyclopropyl-1H-pyrazol-4-yl)-7-isopropoxyisoquinolin-1-yl)oxy)piperidine-1-carboxylate]?
Answer: IC50 (TNF-α in human PBMCs; human PBMCs, 65 ng/mL R848, 4 hours, TNF-α ELISA, read-out: TNFα (PBMC, R848) (IC50)): 38.2 µM; IC50 (IL23p19 in THP-1 Cells; IFNγ-primed THP-1 cells, 1 μg/mL LPS, 18 hours, IL-23p19 ELISA, read-out: IL23 (THP, LPS) (IC50)): 103 µM

Question: Which results are given for CC[C@@H]1[C@H](F)C(=O)N[C@@H]1COc1ncc(C#CC2CCOCC2)c2cc(C(N)=O)c(OC(C)C)cc12 [Compound I-79, 1-(((2S,3S,4S)-3-ethyl-4-fluoro-5-oxopyrrolidin-2-yl)methoxy)-7-isopropoxy-4-((tetrahydro-2H-pyran-4-yl)ethynyl)isoquinoline-6-carboxamide]?
Answer: IC50 (IRAK4): 0.0181 µM; IC50 (IL23p19 in THP-1 Cells; [3]): 0.0072 µM

Question: For CC(C)Oc1cc2c(O[C@@H]3CCCN(C(=O)CC#N)C3)ncc(-c3cnn(C4CCNCC4)c3)c2cc1C(N)=O [Compound I-122, (R)-1-((1-(2-cyanoacetyl)piperidin-3-yl)oxy)-7-isopropoxy-4-(1-(piperidin-4-yl)-1H-pyrazol-4-yl)isoquinoline-6-carboxamide], which IC50 (TNF-α in human PBMCs; [2]) is on record?
Answer: 2.16 µM

Question: What about the IC50 (IRAK4) of the same compound?
Answer: 0.024 µM

Question: And the IC50 [1]?
Answer: 1 µM

Question: With CC(C)Oc1cc2c(O[C@@H]3CCCN(C(=O)CC#N)C3)ncc(C#CC3(O)CCNCC3)c2cc1C(N)=O [Compound I-93, (R)-1-((1-(2-cyanoacetyl)piperidin-3-yl)oxy)-4-((4-hydroxypiperidin-4-yl)ethynyl)-7-isopropoxyisoquinoline-6-carboxamide] as the compound, how does the IC50 (IRAK4) read?
Answer: 0.023 µM

Question: What does the source list for CCO[C@H]1CC[C@@H](C#Cc2cnc(OC[C@H]3NC(=O)[C@@H](F)[C@H]3CC)c3cc(OC(C)C)c(C(N)=O)cc23)CC1 [Compound I-81, 4-(((1s,4R)-4-ethoxycyclohexyl)ethynyl)-1-(((2S,3S,4S)-3-ethyl-4-fluoro-5-oxopyrrolidin-2-yl)methoxy)-7-isopropoxyisoquinoline-6-carboxamide]?
Answer: IC50 (IRAK4): 0.463 µM; IC50 (IL23p19 in THP-1 Cells; [3]): 0.0163 µM

Question: What does the source list for CC(C)Oc1cc2c(OC[C@@H]3CC(F)(F)C(=O)N3)ncc(C#CC3(O)CCN(C(=O)OC(C)(C)C)CC3)c2cc1C(N)=O [Compound I-52, tert-butyl (S)-4-((6-carbamoyl-1-((4,4-difluoro-5-oxopyrrolidin-2-yl)methoxy)-7-isopropoxyisoquinolin-4-yl)ethynyl)-4-hydroxypiperidine-1-carboxylate]?
Answer: IC50 (TNF-α in human PBMCs; [2]): 0.338 µM; IC50 [1]: 0.927 µM; IC50 (IL23p19 in THP-1 Cells; [3]): 4.57 µM
